A value given as a limit tells only on which side of the number the result lay.

This assay deals with P70S6K (T412E mutant) (Homo sapiens (Human), UniProt P23443, T412E). In words: P70S6K enzyme assay. The assay is classed as biochemical. The following applies: 3 nM P70S6K T412E mutant, 24 μM ATP, 1 μM FITC-AHA-AKRRRLSSLRA-OH substrate peptide, 90 min at 25° C. On the procedure: The IC50 values reported for the compounds in the Experimental section were derived from the following protocol for the p70S6K enzyme assay.
P70S6K (T412E mutant), sequence (P23443 whole entry T412E): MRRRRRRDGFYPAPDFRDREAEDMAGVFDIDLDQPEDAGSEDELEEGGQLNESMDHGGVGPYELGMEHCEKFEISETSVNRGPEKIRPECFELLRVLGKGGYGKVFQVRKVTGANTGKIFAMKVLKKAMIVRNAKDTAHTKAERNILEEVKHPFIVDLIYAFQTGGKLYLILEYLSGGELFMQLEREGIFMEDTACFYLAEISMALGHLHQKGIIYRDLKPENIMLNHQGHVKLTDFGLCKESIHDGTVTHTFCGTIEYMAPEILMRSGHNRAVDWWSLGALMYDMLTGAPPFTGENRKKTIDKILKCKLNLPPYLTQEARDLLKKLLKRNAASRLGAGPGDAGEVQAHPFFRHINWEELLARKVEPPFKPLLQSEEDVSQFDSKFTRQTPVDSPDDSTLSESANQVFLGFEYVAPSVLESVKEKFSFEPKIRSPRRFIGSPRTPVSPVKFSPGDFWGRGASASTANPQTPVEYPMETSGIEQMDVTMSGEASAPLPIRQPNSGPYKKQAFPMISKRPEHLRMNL
P70S6K inhibitor compounds were diluted and plated in 96 well plates. A reaction mixture including the following components was then added to the compound plate to initiate the enzyme reaction; P70S6K (3 nM, T412E mutant, Millipore) was mixed with 24 μM ATP in an assay buffer containing 100 mM Hepes (pH 7.5), 5 mM MgCl2, 1 mM DTT, 0.015% Brij and 1 μM of the substrate peptide FITC-AHA-AKRRRLSSLRA-OH (derived from the S6 ribosomal protein sequence, FITC=fluorescein isothiocyanate, AHA=6-aminohexanoic acid). The reaction was incubated for 90 min at 25° C., before the addition of 10 mM EDTA to stop the reaction. The proportion of substrate and product (phosphorylated) peptide was analysed on a Caliper Life Sciences Lab Chip 3000, using a pressure of −1.4 psi, and upstream and downstream voltages of −3000 and −700 respectively. Product peaks were resolved before substrate peaks on the resulting chromatograms.
`N#Cc1c(N)ncnc1N1CCC(N)(C(=O)N[C@@H](CC(N)=O)c2ccc(Cl)cc2)CC1` [Example 221, 4-Amino-1-(6-amino-5-cyano-pyrimidin-4-yl)-piperidine-4-carboxylic acid [(S)-2-carbamoyl-1-(4-chloro-phenyl)-ethyl]-amide] showed an IC50 of 140 nM.
Under `COC[C@H](NC(=O)C1(N)CCN(c2ncnc(N)c2C#N)CC1)c1ccc(Cl)cc1` [Example 241, 4-Amino-1-(6-amino-5-cyano-pyrimidin-4-yl)-piperidine-4-carboxylic acid [(R)-1-(4-chloro-phenyl)-2-methoxy-ethyl]-amide] stands 210 nM; under `CC[C@H](NC(=O)C1(N)CCN(c2ncnc(N)c2C#N)CC1)c1ccc(Cl)cc1` [Example 219, 4-Amino-1-(6-amino-5-cyano-pyrimidin-4-yl)-piperidine-4-carboxylic acid [(S)-1-(4-chloro-phenyl)-propyl]-amide], 140 nM.
Take `Nc1ncnc(N2CCN(C(CN3CCC3)c3ccc(F)c(OC(F)(F)F)c3)CC2)c1-c1cn[nH]c1` (stereo not drawn) [Example 114, 6-{4-[2-Azetidin-1-yl-1-(4-fluoro-3-trifluoromethoxy-phenyl)-ethyl]-piperazin-1-yl}-5-(1H-pyrazol-4-yl)-pyrimidin-4-ylamine]: 3300 nM corresponded to half-maximal inhibition (IC50). Compared with the last molecule, the IC50 is about 24-fold higher.
Under `Nc1ncnc(N2CC[C@@](N)(CNC(=O)c3ccc(F)cc3F)C2)c1-c1ccc(F)cc1` [Example 248, N—{(R)-3-Amino-1-[6-amino-5-(4-fluoro-phenyl)-pyrimidin-4-yl]-pyrrolidin-3-ylmethyl}-2,4-difluoro-benzamide] stands 290 nM.
Under `N#Cc1c(N)ncnc1N1CCC(N)(C(=O)N[C@@H](CCO)c2ccc(Cl)cc2)CC1` [Example 242, 4-Amino-1-(6-amino-5-cyano-pyrimidin-4-yl)-piperidine-4-carboxylic acid [(S)-1-(4-chloro-phenyl)-3-hydroxy-propyl]-amide] stands 98 nM; under `Nc1ncnc(N2CCC(N)(CNC(=O)c3ccc(F)cc3F)CC2)c1Br` [Example 207, N-[4-Amino-1-(6-amino-5-bromo-pyrimidin-4-yl)-piperidin-4-ylmethyl]-2,4-difluoro-benzamide], 150 nM.
The figure for `N#CC(c1ccc(F)cc1)N1CCN(c2ncnc(N)c2-c2ccc(F)cc2)CC1` (stereo not drawn) [Example 158, {4-[6-Amino-5-(4-fluoro-phenyl)-pyrimidin-4-yl]-piperazin-1-yl}-(4-fluoro-phenyl)-acetonitrile] is 240 nM; for `NCC(c1ccc(Cl)c(Cl)c1)N1CCN(c2ncnc(N)c2-c2ccc(F)cc2)CC1` (stereo not drawn) [Example 157, 6-{4-[2-Amino-1-(3,4-dichloro-phenyl)-ethyl]-piperazin-1-yl}-5-(4-fluoro-phenyl)-pyrimidin-4-ylamine] it is 6 nM.
As to `Cc1ccc([C@H](CCO)NC(=O)C2(N)CCN(c3ncnc(N)c3C#N)CC2)cc1` [Example 227, 4-Amino-1-(6-amino-5-cyano-pyrimidin-4-yl)-piperidine-4-carboxylic acid ((S)-3-hydroxy-1-p-tolyl-propyl)-amide], the IC50 amounted to 280 nM.
The figure for `NC(=O)C[C@H](NC(=O)C1(N)CCN(c2ncnc(N)c2Cl)CC1)c1ccc(Cl)cc1` [Example 217, 4-Amino-1-(6-amino-5-chloro-pyrimidin-4-yl)-piperidine-4-carboxylic acid [(S)-2-carbamoyl-1-(4-chloro-phenyl)ethyl]-amide] is 820 nM; for `CS(=O)(=O)c1ccc(C(CN)N2CCN(c3ncnc(N)c3-c3cn[nH]c3)CC2)cc1` (stereo not drawn) [Example 185, 6-(4-(2-amino-1-(4-(methylsulfonyl)phenyl)ethyl)piperazin-1-yl)-5-(1H-pyrazol-4-yl)pyrimidin-4-amine] it is 60 nM; for `Nc1ncnc(N2CCC(Cc3ccc(-c4ccc(F)cc4)cc3)CC2)c1-c1ccc(F)cc1` [Example 50, 5-(4-Fluorophenyl)-6{4-(4-(4-fluorophenyl)benzyl)-piperidin-1-yl}pyrimidin-4-amine] it is 450 nM.
Under `Nc1ncnc(N2CCC(N)(C(=O)N[C@H](c3ccc(Cl)cc3)C(F)(F)F)CC2)c1Cl` [Example 216, 4-Amino-1-(6-amino-5-chloro-pyrimidin-4-yl)-piperidine-4-carboxylic acid [(R)-1-(4-chloro-phenyl)-2,2,2-trifluoroethyl]-amide] stands 820 nM; under `Nc1ncnc(N2CCN(Cc3cc(Cl)c(Cl)cc3OC3CNC3)CC2)c1-c1ccc(F)cc1` [Example 62, 6-(4-(2-(azetidin-3-yloxy)-4,5-dichlorobenzyl)piperazin-1-yl)-5-(4-fluorophenyl)pyrimidin-4-amine], 980 nM; under `NC[C@H](c1ccc(Cl)nc1)N1CCN(c2ncnc(N)c2-c2ccc(F)cc2)CC1` [Example 176, 6-{4-[(S)-2-Amino-1-(6-chloro-pyridin-3-yl)-ethyl]-piperazin-1-yl}-5-(4-fluoro-phenyl)-pyrimidin-4-ylamine], 0.8 nM.
Under `Nc1ncnc(N2CCC(N)(CNC(=O)c3ccc(F)cc3F)C2)c1-c1ccc(Oc2ccccc2)cc1` (stereo not drawn) [Example 200, N-{3-Amino-1-[6-amino-5-(4-phenoxy-phenyl)-pyrimidin-4-yl]-pyrrolidin-3-ylmethyl}-2,4-difluoro-benzamide] stands 120 nM.
For `Nc1ncnc(N2CCC(N)(CNC(=O)c3ccc(F)cc3F)C2)c1-c1cccc(F)c1` (stereo not drawn) [Example 204, N-{3-Amino-1-[6-amino-5-(3-fluoro-phenyl)-pyrimidin-4-yl]-pyrrolidin-3-ylmethyl}-2,4-difluoro-benzamide], the IC50 stood at 2.6 nM.
Under `COC(=O)c1ccc([C@H](CN2CCC2)N2CCN(c3ncnc(N)c3-c3ccc(F)cc3)CC2)cc1` [Example 111, 4-((R)-1-{4-[6-Amino-5-(4-fluoro-phenyl)-pyrimidin-4-yl]-piperazin-1-yl}-2-azetidin-1-yl-ethyl)-benzoic acid methyl ester] stands 190 nM; under `Nc1ncnc(N2CCN(C(CN3CCC3)c3ccc4c(c3)CCCC4)CC2)c1-c1ccc(N2CCNCC2)nc1` (stereo not drawn) [Example 115, 6-{4-[2-Azetidin-1-yl-1-(5,6,7,8-tetrahydro-naphthalen-2-yl)-ethyl]-piperazin-1-yl}-5-(6-piperazin-1-yl-pyridin-3-yl)-pyrimidin-4-ylamine], more than 100000 nM.
Under `Nc1ncnc(N2CCN(C(CN3CCCC3)c3ccc(F)cc3)CC2)c1Br` (stereo not drawn) [Example 77, 5-Bromo-6{4-[1-(4-fluorophenyl)-2-pyrrolidin-1-yl-ethyl]-piperazin-1-yl}-pyrimidin-4-ylamine] stands 640 nM; under `Nc1ncnc(N2CCC(Cc3ccc(Cl)cc3)CC2)c1-c1ccc(F)cc1` [Example 49, 5-(4-Fluorophenyl)-6{4-(4-chlorobenzyl)-piperidin-1-yl}pyrimidin-4-amine], 16 nM; under `N#Cc1c(N)ncnc1N1CCC(N)(C(=O)N[C@@H](CCO)c2ccccc2)CC1` [Example 226, 4-Amino-1-(6-amino-5-cyano-pyrimidin-4-yl)-piperidine-4-carboxylic acid ((S)-3-hydroxy-1-phenyl-propyl)-amide], 820 nM.
As for `Nc1ncnc(N2CCN([C@H](CN3CCC3)c3ccc4c(c3)OCCO4)CC2)c1-c1cn[nH]c1` [Example 108, 6-{4-[(S)-2-Azetidin-1-yl-1-(2,3-dihydro-benzo[1,4]dioxin-6-yl)-ethyl]-piperazin-1-yl}-5-(1H-pyrazol-4-yl)-pyrimidin-4-ylamine], the IC50 turned out to be 3700 nM.
As for `C=Cc1c(N)ncnc1N1CCN(C(CN(C)C)c2ccc(C(F)(F)F)cc2)CC1` (stereo not drawn) [Example 21, 6-(4-(2-(dimethylamino)-1-(4-(trifluoromethyl)phenyl)ethyl)piperazin-1-yl)-5-vinylpyrimidin-4-amine], the IC50 was found to be 35 nM.
Consider `NCC(c1ccc(C(F)(F)F)cc1)N1CCN(c2ncnc(N)c2-c2ccc(F)cc2)CC1` (stereo not drawn) [Example 2, 6-{4-[2-Amino-1-(4-trifluoromethyl-phenyl)-ethyl]-piperazin-1-yl}-5-(4-fluoro-phenyl)-pyrimidin-4-ylamine], for which the IC50 was found to be 2.2 nM.
The molecule `NCC(c1ccc(Cl)nc1)N1CCN(c2ncnc(N)c2-c2ccc(F)cc2)CC1` (stereo not drawn) [Example 174, 6-{4-[2-Amino-1-(6-chloro-pyridin-3-yl)-ethyl]-piperazin-1-yl}-5-(4-fluoro-phenyl)-pyrimidin-4-ylamine] came in with an IC50 of 8.5 nM.
The figure for `NCC(c1ccccc1)N1CCN(c2ncnc(N)c2-c2ccc(F)cc2)CC1` (stereo not drawn) [Example 6, 6-[4-(2-Amino-1-phenyl-ethyl)-piperazin-1-yl]-5-(4-fluoro-phenyl)-pyrimidin-4-ylamine] is 6.3 nM; for `NC(=O)c1c(N)ncnc1N1CCC(N)(C(=O)N[C@@H](CCO)c2ccc(C(F)(F)F)cc2)CC1` [Example 233, 4-Amino-6-{4-amino-4-[(S)-3-hydroxy-1-(4-trifluoromethyl-phenyl)-propylcarbamoyl]-piperidin-1-yl}-pyrimidine-5-carboxylic acid amide] it is 41000 nM.
The figure for `Nc1ncnc(N2CCN(C(CN3CCCCC3)c3ccc(F)cc3)CC2)c1-c1ccc(F)cc1` (stereo not drawn) [Example 67, 5-(4-Fluorophenyl)-6{4-[1-(4-fluoro-phenyl)-2-piperidin-1-yl-ethyl]-piperazin-1-yl}-pyrimidin-4-ylamine] is 24 nM.

Source of the values: patent US9321760B2 (Merck Patent GmbH, priority 2011, dated 2016).
